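Five concentrations, 48 hours, 96-well plates. GI50: concentration for 50% inhibition of growth. The concentration for full growth arrest is given as TGI.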
Experiments:
Assay in all cases: DTP human tumour cell line panel, 48 h
[1] = tested on: OVCAR-3 ovarian
[2] = tested on: A549 NSCLC
[3] = tested on: NCI-H522 lung
[4] = tested on: HCC-2998 colon
[5] = tested on: UO-31 renal
[6] = tested on: PC-3 prostate
[7] = tested on: SF-539 CNS
[8] = tested on: HCT-15 colon
[9] = tested on: HS 578T breast
[10] = tested on: CCRF-CEM leukemia

Row | Structure (SMILES) | GI50 [1] [µM] | TGI [1] [µM] | GI50 [2] [µM] | TGI [2] [µM] | GI50 [3] [µM] | TGI [3] [µM] | GI50 [4] [µM] | TGI [4] [µM] | GI50 [5] [µM] | TGI [5] [µM] | GI50 [6] [µM] | TGI [6] [µM] | GI50 [7] [µM] | TGI [7] [µM] | GI50 [8] [µM] | TGI [8] [µM] | GI50 [9] [µM] | TGI [9] [µM] | GI50 [10] [µM] | TGI [10] [µM]
1 | FC(F)(F)c1ccc2c(c1)N(CCCN1CCN(C3CC3)CC1)c1ccccc1S2 | 7.11 | 20.3 | 10.9 | 23.5 | 11.5 | 25.8 | 13.6 | 27.5 | 8.13 | 22.9 | 5.81 | 20.2 | 14 | 29.5 | 3.81 | 18.6 | 10.3 | 27.1 | 9.11 | 29.3
2 | O=C(Oc1ccccc1)c1cc(O)c(O)c(O)c1 | 4.34 | 47.3 | 9.64 | > 100 | 4.1 | 42.5 | 13.5 | 44.3 | 2.93 | > 100 | 13.7 | > 100 | 5.65 | 36.3 | 5.98 | > 100 | 4.67 | > 100 | 1.28 | > 100
3 | COc1ccc2c(c1)[nH]c(=O)c1c3cccnc3cn21 | 0.0251 | 0.0588 | 0.0479 | 24.4 | 0.0222 | 0.0682 | 0.0744 | 17.7 | 0.0797 | 14.6 | 0.0338 | – | 0.033 | 2.39 | 0.043 | 29.3 | 0.0384 | > 48.8 | 0.0437 | > 100
4 | COc1ccc(C2=NNC(c3ccc(-c4ccc(OC)cc4[N+](=O)[O-])o3)C2)cc1 (centres undefined) | 21 | 62.2 | 39.5 | > 100 | 34.9 | > 100 | 36.9 | > 100 | > 100 | > 100 | 83.3 | > 100 | 10.1 | 23.1 | 31 | > 100 | 22.1 | 57.5 | 70 | > 100
5 | Cn1c2ccccc2c2c(=O)n(CCCC(=O)NCC(=O)OC(=NC3CCCCC3)NC3CCCCC3)c3c(-c4ccccc4)nnn3c21 | 19.6 | 96.2 | 38 | > 100 | 15.9 | 80.4 | 10.2 | 26.8 | 31.3 | > 100 | 22.7 | > 100 | 19.9 | 58.1 | 10.8 | > 100 | 9.43 | > 100 | 8.36 | 57.7
6 | COc1ccc(-c2ccc(/C=N/n3cn[nH]c3=S)o2)c([N+](=O)[O-])c1 | 33.9 | > 100 | 36.2 | > 100 | 40.2 | > 100 | 38.9 | > 100 | 54.4 | > 100 | 35.7 | > 100 | 40.9 | > 100 | 26 | > 100 | 30.6 | 85.3 | 26.1 | 75.3
7 | CCOC(=O)C1CCC/C1=N\N=C(N)N (centres undefined) (tested in a mixture with another compound) | – | > 100 | – | > 100 | – | > 100 | – | > 100 | – | > 100 | – | > 100 | – | > 100 | – | > 100 | – | > 100 | – | > 100
8 | COC(=O)c1c2c(c(C)[n+]([O-])c1C)C(=O)C=C(NCc1ccc(Cl)cc1)C2=O | 0.208 | 0.625 | 0.543 | 3.05 | 0.508 | 2.04 | 0.354 | 1.55 | 1.16 | 2.66 | 0.289 | 3.17 | 0.733 | 1.98 | 0.183 | 1.74 | 1.77 | 6.5 | 0.471 | 4.2
9 | COC(=O)C1=CN(CC2=CC(=O)C(C)=CC2=O)C=C(C(=O)OC)C1c1cccc(OC)c1OC | 8.19 | 24 | 13 | > 51.5 | 17 | 45.2 | 14.2 | 27.2 | 12.9 | 25.5 | 15.3 | 38.6 | 17.1 | 56.2 | 18.4 | 36.9 | 27.1 | > 87.3 | 12.5 | 77.9
10 | N#C/C(=C\c1cn(-c2ccccc2)c2ccccc12)C(=O)O | 18.8 | 43.9 | 42.9 | > 100 | 29 | 88.8 | 49.5 | > 100 | 23.8 | > 100 | 58.3 | > 100 | 39.2 | > 100 | 30.7 | > 100 | 32.2 | > 100 | 99 | > 100
11 | Cc1ccc(NC(=O)c2ccnc(C(F)(F)F)c2)cc1-c1cc(OCCO)nc(N2CCOCC2)c1 | 2.62 | 12.5 | 3.21 | 28.9 | 1.55 | 17.2 | 0.464 | 10 | 0.495 | 13.1 | 3.24 | > 100 | 2.55 | 11.8 | 2.24 | 19.4 | 2.59 | 23.7 | 3.33 | > 100
12 | COc1ccc(C2CC(=O)Nc3c2c(C)nn3-c2nc3ccccc3[nH]2)cc1 (centres undefined) | 2.54 | 5.72 | 3.04 | 15.1 | 2.67 | 7.15 | 5.67 | > 58.5 | 3.19 | 15.8 | 3.21 | 48.9 | 2.16 | 4.94 | 3.49 | > 100 | 3.19 | 17.7 | 2.11 | > 27.9
